Read-outs that look alike come from different tables or passages of the source.
Assays:
[1] = Determination of the acute toxicity to mice (BEHRENS and KARBER); conditions: mouse, in vivo
Protocol: All the experiments reported below were carried out on male rats having a weight of between 170 and 220 g (Wistar AF strain) and male mice having a weight of between 18 and 23 g (Swiss NMRI strain), unless otherwise stated in the following text.
Determination of the acute toxicity to mice
Method used: BEHRENS and KARBER

mice [2] = assay: Sleep induced by pentobarbital in mice; assay type: in vivo; conditions: pentobarbital 50 mg.kg^-1 i.p.
Protocol: (b) Absence of modification of the effects of pentobarbital
At time 0, the mice receive, by intraperitoneal or oral administration, distilled water or the medicament according to the invention, obtained in accordance with Example I. After 30 minutes, they receive pentobarbital (50 mg.kg^-1) by intraperitoneal administration.

mice [3] = assay: Anti-apomorphine activity in mice (hypothermia caused by apomorphine); assay type: in vivo

For `CC1CC(c2ccc(Cl)cc2)C(c2ccccc2)C(=O)O1` (stereo not drawn) [Example I, trans-4-(4'-chlorophenyl)-6-methyl-3-phenyl-3,4,5,6-tetrahydropyrone-2], the LD50 ([1]; ip, intraperitoneal, read-out: LD50 (intraperitoneal administration)) was 520 mg/kg, the LD50 ([1]; oral, read-out: LD50 (oral administration)) was 1050 mg/kg and the “% of mice which have slept” value (mice [2]; 2 mg/kg intraperitoneal) was 100%. The “Time in minutes for induction of sleep” value (mice [2]; 2 mg/kg intraperitoneal) was 4 min, the “Time in minutes of sleep” value (mice [2]; 2 mg/kg intraperitoneal) was 47 ± 7 min and the “% of mice which have slept” value (mice [2]; 2 mg/kg oral) was 100%. The “Time in minutes for induction of sleep” value (mice [2]; 2 mg/kg oral) was 4 min, the “Time in minutes of sleep” value (mice [2]; 2 mg/kg oral) was 60 ± 8 min and the “% of mice which have slept” value (mice [2]; 4 mg/kg intraperitoneal) was 100%. For the same molecule, the “Time in minutes for induction of sleep” value (mice [2]; 4 mg/kg intraperitoneal) was 4 min, the “Time in minutes of sleep” value (mice [2]; 4 mg/kg intraperitoneal) was 55 ± 8 min and the “% of mice which have slept” value (mice [2]; 4 mg/kg oral) was 100%. For the same molecule, the “Time in minutes for induction of sleep” value (mice [2]; 4 mg/kg oral) was 4 min, the “Time in minutes of sleep” value (mice [2]; 4 mg/kg oral) was 45 ± 4 min and the “% of mice which have slept” value (mice [2]; 8 mg/kg intraperitoneal) was 100%. The “Time in minutes for induction of sleep” value (mice [2]; 8 mg/kg intraperitoneal) was 4 min, the “Time in minutes of sleep” value (mice [2]; 8 mg/kg intraperitoneal) was 36 ± 3 min and the “% of mice which have slept” value (mice [2]; 8 mg/kg oral) was 100%. The “Time in minutes for induction of sleep” value (mice [2]; 8 mg/kg oral) was 4 min, the “Time in minutes of sleep” value (mice [2]; 8 mg/kg oral) was 57 ± 10 min and the “% of mice which have slept” value (mice [2]; 16 mg/kg intraperitoneal) was 83%. For the same molecule, the “Time in minutes for induction of sleep” value (mice [2]; 16 mg/kg intraperitoneal) was 4.5 min, the “Time in minutes of sleep” value (mice [2]; 16 mg/kg intraperitoneal) was 26 ± 7 min and the “% of mice which have slept” value (mice [2]; 16 mg/kg oral) was 100%. For the same molecule, the “Time in minutes for induction of sleep” value (mice [2]; 16 mg/kg oral) was 4 min, the “Time in minutes of sleep” value (mice [2]; 16 mg/kg oral) was 41 ± 7 min and the “% of mice which have slept” value (mice [2]; 32 mg/kg intraperitoneal) was 92%. For the same molecule, the “Time in minutes for induction of sleep” value (mice [2]; 32 mg/kg intraperitoneal) was 4.5 min, the “Time in minutes of sleep” value (mice [2]; 32 mg/kg intraperitoneal) was 27 ± 3 min and the “% of mice which have slept” value (mice [2]; 32 mg/kg oral) was 100%. For the same molecule, the “Time in minutes for induction of sleep” value (mice [2]; 32 mg/kg oral) was 4 min, the “Time in minutes of sleep” value (mice [2]; 32 mg/kg oral) was 49 ± 4 min and the “% of mice which have slept” value (mice [2]; 64 mg/kg intraperitoneal) was 100%. For the same molecule, the “Time in minutes for induction of sleep” value (mice [2]; 64 mg/kg intraperitoneal) was 4 min, the “Time in minutes of sleep” value (mice [2]; 64 mg/kg intraperitoneal) was 30 ± 9 min and the “% of mice which have slept” value (mice [2]; 64 mg/kg oral) was 100%. The “Time in minutes for induction of sleep” value (mice [2]; 64 mg/kg oral) was 5 min, the “Time in minutes of sleep” value (mice [2]; 64 mg/kg oral) was 29 ± 8 min and the “% of mice which have slept” value (mice [2]; 128 mg/kg intraperitoneal) was 83%. For the same molecule, the “Time in minutes for induction of sleep” value (mice [2]; 128 mg/kg intraperitoneal) was 6 min, the “Time in minutes of sleep” value (mice [2]; 128 mg/kg intraperitoneal) was 25 ± 5 min and the “% of mice which have slept” value (mice [2]; 128 mg/kg oral) was 100%. The “Time in minutes for induction of sleep” value (mice [2]; 128 mg/kg oral) was 4 min, the “Time in minutes of sleep” value (mice [2]; 128 mg/kg oral) was 38 ± 7 min and the “Rectal temperatures, results in % inhibition of the hypothermia” value (mice [3]; 0.5 mg/kg intraperitoneal, apomorphine 1 mg.kg^-1 subcutaneously) was 7%. For the same molecule, the “Rectal temperatures, results in % inhibition of the hypothermia” value (mice [3]; 0.5 mg/kg intraperitoneal, apomorphine 16 mg.kg^-1 subcutaneously) was -5%, the “Rectal temperatures, results in % inhibition of the hypothermia” value (mice [3]; 2 mg/kg intraperitoneal, apomorphine 1 mg.kg^-1 subcutaneously) was 3% and the “Rectal temperatures, results in % inhibition of the hypothermia” value (mice [3]; 2 mg/kg intraperitoneal, apomorphine 16 mg.kg^-1 subcutaneously) was 45%. For the same molecule, the “Rectal temperatures, results in % inhibition of the hypothermia” value (mice [3]; 4 mg/kg intraperitoneal, apomorphine 1 mg.kg^-1 subcutaneously) was -13%, the “Rectal temperatures, results in % inhibition of the hypothermia” value (mice [3]; 4 mg/kg intraperitoneal, apomorphine 16 mg.kg^-1 subcutaneously) was 39% and the “Rectal temperatures, results in % inhibition of the hypothermia” value (mice [3]; 4 mg/kg oral, apomorphine 1 mg.kg^-1 subcutaneously) was 0%. For the same molecule, the “Rectal temperatures, results in % inhibition of the hypothermia” value (mice [3]; 4 mg/kg oral, apomorphine 16 mg.kg^-1 subcutaneously) was 31%, the “Rectal temperatures, results in % inhibition of the hypothermia” value (mice [3]; 8 mg/kg oral, apomorphine 1 mg.kg^-1 subcutaneously) was -2% and the “Rectal temperatures, results in % inhibition of the hypothermia” value (mice [3]; 8 mg/kg oral, apomorphine 16 mg.kg^-1 subcutaneously) was 40%. For the same molecule, the “Rectal temperatures, results in % inhibition of the hypothermia” value (mice [3]; 16 mg/kg intraperitoneal, apomorphine 1 mg.kg^-1 subcutaneously) was 10%, the “Rectal temperatures, results in % inhibition of the hypothermia” value (mice [3]; 16 mg/kg intraperitoneal, apomorphine 16 mg.kg^-1 subcutaneously) was 51% and the “Rectal temperatures, results in % inhibition of the hypothermia” value (mice [3]; 16 mg/kg oral, apomorphine 1 mg.kg^-1 subcutaneously) was 0.5%. For the same molecule, the “Rectal temperatures, results in % inhibition of the hypothermia” value (mice [3]; 16 mg/kg oral, apomorphine 16 mg.kg^-1 subcutaneously) was 42%, the “Rectal temperatures, results in % inhibition of the hypothermia” value (mice [3]; 32 mg/kg oral, apomorphine 1 mg.kg^-1 subcutaneously) was 45% and the “Rectal temperatures, results in % inhibition of the hypothermia” value (mice [3]; 32 mg/kg oral, apomorphine 16 mg.kg^-1 subcutaneously) was 77%. For the same molecule, the “Rectal temperatures, results in % inhibition of the hypothermia” value (mice [3]; 64 mg/kg oral, apomorphine 1 mg.kg^-1 subcutaneously) was 51%, the “Rectal temperatures, results in % inhibition of the hypothermia” value (mice [3]; 64 mg/kg oral, apomorphine 16 mg.kg^-1 subcutaneously) was 86% and the “Rectal temperatures, results in % inhibition of the hypothermia” value (mice [3]; 128 mg/kg oral, apomorphine 1 mg.kg^-1 subcutaneously) was 68%.
